Experimental data taken from patent US8399417B2, “Food” (Ajinomoto Co., Inc., priority 2007, dated 2013).
Starred links: 1 amine or outer side, 2 acyl side, 3 side chain; linkers in the order of their positions; H or OH if unused. Non-standard residues stand in square brackets, D forms with d. No end group written: not given here. γGlu = O=C(O)[C@H](CCC(=O)[*:2])N[*:1]

Test: Fat-like richness and smoothness imparted to low-fat yogurt, quantitative sensory evaluation test
Type: in vivo, human
Conditions: Table 10
Description: The quantitative sensory evaluation test was performed as follows. Each of γ-Glu-Val-Gly and cinacalcet was mixed with commercially-available low-fat yogurt (non-fat milk solids content: 10.0%, milk fat content: 1.0%) at a concentration of 0.00001 to 1 g/dl, and the intensity of imparting fat-like richness was measured.
It should be noted that after each sample was dissolved in low-fat yogurt, and a sample, the pH of which was lowered, was adjusted with NaOH so that the pH might be ±0.2 with respect to the pH of the […] free of a sample.
The sensory score for fat-like richness and smoothness was defined as follows: control (free of sample): 0 point; strong: 3 points; and very strong: 5 points. Then, the test was performed with n=12.

Q: For [γGlu]-Val-Gly, which Fat-like richness (0.001 g/dl in low-fat yogurt (milk fat 1.0%), n=12, control 0, strong 3, very strong 5 points) is on record?
A: Its Fat-like richness is 4.5 points.

Q: What about the Taste profile (0.001 g/dl in low-fat yogurt) of the same substance?
A: The Taste profile was “Taste is enhanced in middle”.

Q: And the Smoothness (0.001 g/dl in low-fat yogurt, n=12, control 0, strong 3, very strong 5 points)?
A: The Smoothness was 4.0 points.
